The target in experiment [1] is T1, PLK1 kinase domain (Homo sapiens, UniProt P53350).
T1 construct: made in house; host or cells: baculovirus-infected T. ni insect cells
The experiment in a line: Assay for Inhibition of PLK1 (SPA enzyme activity). The class given is biochemical. Conditions: 2 μM ATP, read-out: Ave pIC50 PLK Enzyme Inhibition (converted).

The test system of experiment [2] is breast tumor (MCF7) cell line. The experiment in a line: Methylene Blue Growth Inhibition Assay, MCF7. It counts as cell-based. Conditions: Homo sapiens, 72 h; Cell Line MCF7, 3 days; read-out: MeB IC50. The method, boiled down:
(§1)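 Growth inhibition is measured as methylene blue-stained biomass (OD 620 nm) after 3 days of compound treatment, relative to vehicle controls. Cells grow in high-glucose DMEM with 10% FBS and 0.3% final DMSO; IC50 comes from nonlinear regression.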

Experiment [3] has as its system colon (HCT116) tumor cell line. Nature of the experiment: Methylene Blue Growth Inhibition Assay, HCT116. It counts as cell-based. Conditions: Homo sapiens, HCT-116, 72 h; Cell Line HCT116, 3 days; read-out: MeB IC50. The method, boiled down: as §1
The subject of experiment [4] is A549. Nature of the experiment: Methylene Blue Growth Inhibition Assay, A549. It counts as cell-based. The conditions noted are these: Homo sapiens; Cell Line A549; read-out: MeB IC50.
In experiment [5] the test system is prostate (PC3) tumor cell line. The experiment in a line: Methylene Blue Growth Inhibition Assay, PC3. It counts as cell-based. Conditions: Homo sapiens, 72 h; Cell Line PC3, 3 days; read-out: MeB IC50. The method, boiled down: as §1
For experiment [6], the system named is lung (H460) tumor cell line. Nature of the experiment: Methylene Blue Growth Inhibition Assay, H460. The class given is cell-based. The conditions noted are these: Homo sapiens, NCI-H460, 72 h; Cell Line H460, 3 days; read-out: MeB IC50. A digest of the protocol: as §1
Experiment [7] relates to colon (RKO) tumor cell line. Nature of the experiment: Methylene Blue Growth Inhibition Assay, RKO. The conditions noted are these: Homo sapiens, 72 h, 3 days, read-out: MeB IC50. It counts as cell-based. The method, boiled down: as §1
Experiment [8] concerns Normal Human foreskin fibroblasts (HFF). Nature of the experiment: Methylene Blue Growth Inhibition Assay, HFF. Conditions: 72 h, Cell Line HFF, 3 days, read-out: MeB IC50. It counts as cell-based. The method, boiled down:
as §1

T1 sequence (P53350 21-346): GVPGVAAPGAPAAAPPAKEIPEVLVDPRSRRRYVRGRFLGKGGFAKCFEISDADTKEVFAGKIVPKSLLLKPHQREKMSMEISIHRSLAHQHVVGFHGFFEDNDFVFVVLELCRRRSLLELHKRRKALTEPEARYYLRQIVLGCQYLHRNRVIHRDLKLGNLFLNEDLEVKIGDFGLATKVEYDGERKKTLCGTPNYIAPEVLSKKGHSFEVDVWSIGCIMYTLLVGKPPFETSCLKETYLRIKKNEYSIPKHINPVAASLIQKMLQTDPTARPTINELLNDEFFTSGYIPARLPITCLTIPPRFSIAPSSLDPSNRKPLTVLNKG

Turning to `COc1cc2ncn(-c3cc(OCc4cccnc4F)c(C(N)=O)s3)c2cc1OC` [Example 102, 5-(5,6-Dimethoxy-1H-benzimidazol-1-yl)-3-[(2-fluoropyridin-3-yl)methoxy]thiophene-2-carboxamide], the IC50 in experiment [1] is less than 0.1 µM; in experiment [2] it was 1 to 10 µM; in experiment [3] it was 1 to 10 µM; in experiment [4] it was 1 to 10 µM; in experiment [5], more than 10 µM; in experiment [6] it was 1 to 10 µM. Also, the IC50 in experiment [7] was less than 1 µM; in experiment [8], more than 10 µM.
As to `NC(=O)c1sc(-n2cnc3ccc(OCC4CCNCC4)cc32)cc1OCc1ccccc1C(F)(F)F` [Example 143, 5-{6-[(4-Piperidinylmethyl)oxy]-1H-benzimidazol-1-yl}-3-({[2-(trifluoromethyl)phenyl]-methyl}oxy)-2-thiophenecarboxamide], the IC50 in experiment [1] is less than 0.1 µM; in experiment [2], less than 1 µM; in experiment [3] it was less than 1 µM; in experiment [4] it was 1 to 10 µM; in experiment [5], 1 to 10 µM; in experiment [6], 1 to 10 µM. For the same compound, the IC50 is less than 1 µM in experiment [7] and 1 to 10 µM in experiment [8].
`COc1cc2ncn(-c3cc(OS(=O)(=O)c4ccccc4C)c(C(N)=O)s3)c2cc1OC` [Example 154, 2-(Aminocarbonyl)-5-(5,6-dimethoxy-1H-benzimidazol-1-yl)thien-3-yl-2-methylbenzenesulfonate]: the IC50 in experiment [1] is less than 0.1 µM; in experiment [2] it was less than 1 µM; in experiment [3] it was 1 to 10 µM; in experiment [4], less than 1 µM; in experiment [5] it was more than 10 µM; in experiment [6], less than 1 µM. For the same compound, the IC50 is less than 1 µM in experiment [7] and more than 10 µM in experiment [8].
For `COc1cc2ncn(-c3cc(OCc4cc5c(cc4Cl)OCO5)c(C(N)=O)s3)c2cc1OC` [Example 91, 3-[(6-Chloro-1,3-dibenzodioxol-5-yl)methoxy]-5-(5,6-dimethoxy-1H-benzimidazol-1-yl)thiophene-2-carboxamide], the IC50 in experiment [1] was less than 0.1 µM; in experiment [2], less than 1 µM; in experiment [3], less than 1 µM; in experiment [4], less than 1 µM; in experiment [5], 1 to 10 µM; in experiment [6], less than 1 µM. Moreover, the IC50 in experiment [7] was less than 1 µM; in experiment [8] it was more than 10 µM.

For the origin of these results see patent publication US20080269298A1, “Benzimidazol-1-YL-thiophene compounds for the treatment of cancer” (priority 2002, published 2008).
